# Earlier results, collected in PubChem BioAssay AID1259409 (Chemical Carcinogenesis Research Information System (CCRIS), 2018).
# System: rodent chemically induced tumor inhibition, incidence and multiplicity
# Assay: CCRIS tumor inhibitor studies
# Conditions: Species: RAT; for tumour outcome (control, treated, inhibition, significance): Carcinogen: DIETHYLNITROSAMINE, 55-18-5, N-METHYL-N-NITROSOUREA, 684-93-5, N-BUTYL-N-(4-HYDROXYBUTYL)NITROSAMINE, 3817-11-6, DIMETHY, Dose [Inhibitor]: 0, Route [Inhibitor]: ORAL, Strain/Sex: F344/MALE, Dose [Carcinogen]: 100 MG/KG BW DEN ONCE FOLLOWED BY 20 MG/KG BW MNU 4 TIMES AND 0.05% BBN IN DRINKING WATER DURING FIRST 2 WK THEN 40 MG/K, Promoter: NONE USED
smiles,measurement,setting,value
CCCCCCOc1cc(C)c(O)c(C)c1C,"tumour outcome (control, treated, inhibition, significance)","1% IN THE DIET FOR 24 WK BEGINNING 1 DAY POST CARCINOGEN TREATMENT (STUDY DURATION: 28 WK), Target Tissue: Type of Lesion: SMALL INTESTINE: ADENOMA","33%, 0%, 100%, p<0.05"
same,"tumour outcome (control, treated, inhibition, significance)","1% IN THE DIET FOR 24 WK BEGINNING 1 DAY POST CARCINOGEN TREATMENT (STUDY DURATION: 28 WK), Target Tissue: Type of Lesion: THYROID: CARCINOMA","7%, 8%, -14%, not significant"
same,"tumour outcome (control, treated, inhibition, significance)","1% IN THE DIET FOR 24 WK BEGINNING 1 DAY POST CARCINOGEN TREATMENT (STUDY DURATION: 28 WK), Target Tissue: Type of Lesion: URINARY BLADDER: CARCINOMA","7%, 0%, 100%, not significant"
same,"tumour outcome (control, treated, inhibition, significance)","1% IN THE DIET FOR 24 WK BEGINNING 1 DAY POST CARCINOGEN TREATMENT(STUDY DURATION: 28 WK), Target Tissue: Type of Lesion: SMALL INTESTINE: CARCINOMA","7%, 0%, 100%, not significant"
same,"tumour outcome (control, treated, inhibition, significance)","1% IN THE DIET FOR 30 D BEGINNING 1 D PRIOR TO CARCINOGEN TREATMENT (STUDY DURATION: 28 WK), Target Tissue: Type of Lesion: URINARY BLADDER: PAPILLOMA","7%, 21%, -200%, not significant"
same,"tumour outcome (control, treated, inhibition, significance)","1% IN THE DIET FOR 30 D BEGINNING 1 DAY PRIOR TO CARCINOGEN TREATMENT (STUDY DURATION: 28 WK), Target Tissue: Type of Lesion: LARGE INTESTINE: CARCINOMA","7%, 0%, 100%, not significant"
same,"tumour outcome (control, treated, inhibition, significance)","1% IN THE DIET FOR 30 D BEGINNING 1 DAY PRIOR TO CARCINOGEN TREATMENT (STUDY DURATION: 28 WK), Target Tissue: Type of Lesion: SMALL INTESTINE: ADENOMA","33%, 14%, 58%, not significant"
same,"tumour outcome (control, treated, inhibition, significance)","1% IN THE DIET FOR 30 D BEGINNING 1 DAY PRIOR TO CARCINOGEN TREATMENT (STUDY DURATION: 28 WK), Target Tissue: Type of Lesion: THYROID: CARCINOMA","7%, 0%, 100%, not significant"
same,"tumour outcome (control, treated, inhibition, significance)","1% IN THE DIET FOR 30 D BEGINNING 1 DAY PRIOR TO CARCINOGEN TREATMENT (STUDY DURATION: 28 WK), Target Tissue: Type of Lesion: URINARY BLADDER: CARCINOMA","7%, 14%, -100%, not significant"
same,outcome,"Carcinogen: SUBCUTANEOUS, Dose [Inhibitor]: 1,2-DIMETHYLHYDRAZINE [540-73-8], Route [Inhibitor]: 0.125% IN DIET FOR 32 WK BEGINNING 1 WK POST LAST CARCINOGEN DOSE (STUDY DURATION: 36 WK), Strain/Sex: ORAL, Target Tissue: Type of Lesion: 20/21 (95%), 21/21 (100%), -5%, NOT SIGNIFICANT, Dose [Carcinogen]: 2-AMINO-1-METHYL-6-PHENYLIMIDAZO[4,5-B]PYRIDINE [105650-23-5], Promoter: ORAL","9.1, 6.2, 32%, not significant"
